Counter-ions that a name gives are not always drawn.
How the values were obtained:
T47D cells = experiment: Cell-based assay: anti-proliferative activity, Cell Counting Kit-8, 72 hours (T47D); conditions: Homo sapiens, T47D, 72 h, MELK-expressing, Cell Counting Kit-8 at 72 hours
Method in brief: (§1)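 T47D, A549 and BT-549 cells, with MELK-negative HT-1197 as control (MELK status checked by western blot), seeded at 2,000–3,000 cells/well. Growth measured by CCK-8 72 hours after inhibitor exposure; IC50 values calculated.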

A549 cells = experiment: Cell-based assay: anti-proliferative activity, Cell Counting Kit-8, 72 hours (A549); conditions: Homo sapiens, A549, 72 h, MELK-expressing, Cell Counting Kit-8 at 72 hours
Method in brief: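 A549 cells were seeded in 96-well plates and exposed to candidate inhibitors for 72 hours. Cell growth was then measured with Cell Counting Kit-8, and IC50 values were calculated from the resulting growth data.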

MELK = MELK (Homo sapiens, UniProt Q14680); experiment: Kinase assay: MELK activity, phosphorylation of FITC-labeled histone H3 peptide measured by IMAP fluorescence polarization; format: biochemical; conditions: 50 micro-M ATP, FITC-labeled histone H3 peptide substrate, IMAP fluorescence polarization; read-out: IC50 (μM) (kinase assay)
Method in brief: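 A FITC-labelled histone H3 peptide served as substrate, with compounds serially diluted to 1% DMSO final. Reactions were stopped with three volumes of IMAP progressive binding solution. After 0.5 h at room temperature, fluorescence polarization was read.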

BT-549 cells = experiment: Cell-based assay: anti-proliferative activity, Cell Counting Kit-8, 72 hours (BT-549); conditions: Homo sapiens, BT-549, 72 h, BT549 cells, MELK-expressing; Cell Counting Kit-8 at 72 hours
Protocol: To evaluate the expression status of MELK in several cell lines, western blot analysis was performed using crude cell lysate collected from those cells. Anti-MELK antibody (clone 31, BD Biosciences) was used to visualize the expression.
Active candidate inhibitors against MELK were evaluated for their target-specific cytotoxicity using T47D, A549, BT-549, and HT-1197 cells was used for negative control. 100 micro-L of cell suspension was seeded onto 96-well microtiter plate (ViewPlate-96FTC, PerkinElmer). The initial cell concentration of T47D, A549, BT-549, and HT-1197 were 3,000 cells/well, 2,000 cells/well and 2,500 cells/well, respectively. Cellular growth was determined using Cell Counting Kit-8 (DOJINDO) at 72 hours after the exposure of the candidate inhibitors. […] Accurate IC50 values were calculated as described previously.

HT-1197 cells = experiment: Cell-based assay: anti-proliferative activity, Cell Counting Kit-8, 72 hours (HT-1197, negative control without MELK expression); conditions: Homo sapiens, HT1197, 72 h, HT1197 cells, no MELK expression (negative control); Cell Counting Kit-8 at 72 hours
Method in brief: as §1

Chain of MELK (Q14680 whole entry, looked up): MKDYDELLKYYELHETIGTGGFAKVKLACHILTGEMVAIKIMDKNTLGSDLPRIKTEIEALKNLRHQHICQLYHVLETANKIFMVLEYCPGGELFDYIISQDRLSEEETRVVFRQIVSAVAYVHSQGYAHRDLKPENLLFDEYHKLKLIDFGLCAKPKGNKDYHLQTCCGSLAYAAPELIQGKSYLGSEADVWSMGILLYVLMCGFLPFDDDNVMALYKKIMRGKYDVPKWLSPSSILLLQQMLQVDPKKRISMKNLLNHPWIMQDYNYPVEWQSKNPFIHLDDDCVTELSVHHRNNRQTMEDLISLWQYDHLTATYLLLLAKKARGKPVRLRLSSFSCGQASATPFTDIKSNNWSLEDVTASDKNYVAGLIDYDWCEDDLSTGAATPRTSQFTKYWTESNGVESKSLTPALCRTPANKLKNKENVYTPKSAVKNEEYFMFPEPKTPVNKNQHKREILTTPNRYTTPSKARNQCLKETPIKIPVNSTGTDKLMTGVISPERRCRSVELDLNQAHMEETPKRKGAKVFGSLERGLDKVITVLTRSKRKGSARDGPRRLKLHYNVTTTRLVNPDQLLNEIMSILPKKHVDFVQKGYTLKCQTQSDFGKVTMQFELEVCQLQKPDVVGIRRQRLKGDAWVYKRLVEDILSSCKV

SMILES: CC(C)C(=O)c1cnc2ccc(-c3cc(F)c(O)c(Cl)c3)cc2c1N1CCC(CN2CCCC2)CC1 [Example 323, 1-{6-(3-Chloro-5-fluoro-4-hydroxyphenyl)-4-[4-(pyrrolidin-1-ylmethyl)piperidin-1-yl]quinolin-3-yl}-2-methylpropan-1-one]
- IC50 (T47D cells): 0.63 µM
- IC50 (A549 cells): 0.87 µM
- IC50 (MELK): 0.013 µM
- IC50 (BT-549 cells): 1.5 µM
- IC50 (HT-1197 cells): 1.2 µM

SMILES: CN(C)[C@H]1CC[C@H](Nc2c(C(=O)C3CC3)cnc3cc(F)c(-c4cc(F)c(O)c(Cl)c4)cc23)CC1 [Example 295, {6-(3-Chloro-5-fluoro-4-hydroxyphenyl)-4-[trans-4-(dimethylamino)cyclohexylamino]-7-fluoroquinolin-3-yl}(cyclopropyl)methanone]
- IC50 (T47D cells): 0.42 µM
- IC50 (A549 cells): 0.31 µM
- IC50 (MELK): 0.027 µM
- IC50 (BT-549 cells): 0.39 µM
- IC50 (HT-1197 cells): 1.2 µM

SMILES: COc1cc(-c2cc3c(N[C@H]4CC[C@H](N)CC4)c(C(=O)C4CC4)cnc3cc2F)cc(Cl)c1O [Example 284, {4-[trans-4-aminocyclohexylamino]-6-(3-chloro-4-hydroxy-5-methoxyphenyl)-7-fluoroquinolin-3-yl}(cyclopropyl)methanone]
- IC50 (T47D cells): 0.62 µM
- IC50 (A549 cells): 0.49 µM
- IC50 (MELK): 0.013 µM
- IC50 (BT-549 cells): 1.7 µM
- IC50 (HT-1197 cells): 2.2 µM

SMILES: COc1cc(-c2ccc3ncc(C(=O)C4CC4)c(Nc4ccc(CN(C)C)cc4)c3c2)cc(Cl)c1O [Example 339]
- IC50 (T47D cells): 0.15 µM
- IC50 (A549 cells): 0.19 µM
- IC50 (MELK): 0.004 µM
- IC50 (BT-549 cells): 0.49 µM
- IC50 (HT-1197 cells): 1.9 µM

SMILES: CCN(CC)C1CCC(Nc2c(S(C)(=O)=O)cnc3ccc(-c4cc(Cl)c(O)c(OC)c4)cc23)CC1 (stereo not shown) [Example 240, 2-Chloro-4-{4-[4-(diethylamino)cyclohexylamino]-3-(methylsulfonyl)quinolin-6-yl}-6-methoxyphenol dihydrochloride]
- IC50 (T47D cells): 0.97 µM
- IC50 (A549 cells): 0.78 µM
- IC50 (MELK): 0.0053 µM
- IC50 (BT-549 cells): 1.5 µM
- IC50 (HT-1197 cells): 3.8 µM

SMILES: CCOc1cc(-c2ccc3ncc(C(=O)C4CC4)c(N4CCC(CN(C)C)CC4)c3c2)ccc1O [Example 353, Cyclopropyl[4-{4-[(dimethylamino)methyl]piperidin-1-yl}-6-(3-ethoxy-4-hydroxyphenyl)quinolin-3-yl]methanone]
- IC50 (T47D cells): 0.61 µM
- IC50 (A549 cells): 0.68 µM
- IC50 (MELK): 0.0017 µM
- IC50 (BT-549 cells): 1.5 µM
- IC50 (HT-1197 cells): 2.5 µM

SMILES: CCN(CC)C1CCC(Nc2c(C(=O)C3CC3)cnc3ccc(-c4ccc(O)c(Cl)c4)cc23)CC1 (stereo not shown) [Example 192, {6-(3-Chloro-4-hydroxyphenyl)-4-[4-(diethylamino)cyclohexylamino]quinolin-3-yl}(cyclopropyl)methanone]
- IC50 (T47D cells): 0.57 µM
- IC50 (A549 cells): 0.42 µM
- IC50 (MELK): 0.011 µM
- IC50 (BT-549 cells): 1.3 µM
- IC50 (HT-1197 cells): 2.2 µM

SMILES: N[C@H]1CC[C@H](Nc2c(C(=O)C3CC3)cnc3ccc(-c4ccc(O)cc4)cc23)CC1 [Example 55, {4-[trans-4-Aminocyclohexylamino]-6-(4-hydroxyphenyl)quinolin-3-yl}(cyclopropyl)methanone]
- IC50 (T47D cells): 0.2 µM
- IC50 (A549 cells): 0.48 µM
- IC50 (MELK): 0.021 µM
- IC50 (BT-549 cells): 0.43 µM
- IC50 (HT-1197 cells): 2 µM

SMILES: O=C(c1cnc2ccc(-c3ccc(O)c(Cl)c3)cc2c1NCCN1CCNCC1)C1CC1 [Example 215, {6-(3-Chloro-4-hydroxyphenyl)-4-[2-(piperazin-1-yl)ethylamino]quinolin-3-yl}(cyclopropyl)methanone]
- IC50 (T47D cells): 0.92 µM
- IC50 (A549 cells): 1.2 µM
- IC50 (MELK): 0.017 µM
- IC50 (BT-549 cells): 1.5 µM
- IC50 (HT-1197 cells): 3.9 µM

SMILES: COc1cc(-c2ccc3ncc(C(=O)C4CC4)c(NCC4CCNCC4)c3c2)cc(Cl)c1O [Example 243]
- IC50 (T47D cells): 0.33 µM
- IC50 (A549 cells): 0.62 µM
- IC50 (MELK): 0.0044 µM
- IC50 (BT-549 cells): 1.8 µM
- IC50 (HT-1197 cells): 7.3 µM

SMILES: COc1cc(-c2ccc3ncc(C(=O)C4CC4)c(N[C@H]4CC[C@H](N(C)C)CC4)c3c2)ccc1O [Example 266, Cyclopropyl(4-((trans)-4-(dimethylamino)cyclohexylamino)-6-(4-hydroxy-3-methoxyphenyl)quinolin-3-yl)methanone]
- IC50 (T47D cells): 0.29 µM
- IC50 (A549 cells): 0.37 µM
- IC50 (MELK): 0.0016 µM
- IC50 (BT-549 cells): 0.94 µM
- IC50 (HT-1197 cells): 3 µM
